Target: T1, human calcitonin-2 receptor (hCT2R) (Homo sapiens, UniProt P30988)
T1 construct: expressed in transfected cells; host or cells: Chinese hamster ovary (CHO) cells co-transfected with a 6CRE-luciferase reporter; receptor cDNA cloned from the MCF7 cell line
T1 sequence (P30988 25-474): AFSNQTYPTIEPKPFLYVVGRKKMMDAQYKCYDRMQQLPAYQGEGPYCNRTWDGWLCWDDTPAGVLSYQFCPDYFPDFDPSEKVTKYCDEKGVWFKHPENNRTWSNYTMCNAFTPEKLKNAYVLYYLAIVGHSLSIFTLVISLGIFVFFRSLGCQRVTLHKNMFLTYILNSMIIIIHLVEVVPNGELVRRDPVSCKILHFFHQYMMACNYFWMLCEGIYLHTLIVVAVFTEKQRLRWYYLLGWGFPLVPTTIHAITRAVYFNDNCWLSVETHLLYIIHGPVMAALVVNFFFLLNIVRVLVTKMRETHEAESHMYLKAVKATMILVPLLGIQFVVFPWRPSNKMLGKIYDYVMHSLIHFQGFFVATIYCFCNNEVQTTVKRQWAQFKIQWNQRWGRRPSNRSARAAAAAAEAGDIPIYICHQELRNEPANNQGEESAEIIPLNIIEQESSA
Experiment: HCT2R CRE-luc reporter assay
Assay type: cell-based
Settings: agonist activity; CHO-6CRE-luciferase cells co-transfected with hCT2R
Experimental: The compounds of the present invention elicit important and measurable pharmacological responses. As is to be expected, the efficacy of any compound will vary depending upon the particular assay and the particular compound tested.
All recombinant cell line human calcitonin receptor assays were carried out with the human receptor corresponding to GeneBank Accession Number X69920, [See: Molecular Pharmacology 46 (2):246–255, 1994, Cloning and characterization of an abundant subtype of the human calcitonin receptor] cloned from the MCF7 cell line (American Type Tissue Collection, Manassas, Va., USA, Catalog # HTB-22). Human calcitonin receptor (hCT2R) was cloned as a HindIII fragment into plasmid BS SKII. Chinese hamster ovary cells were co-transfected with a 6CRE-luciferase reporter system and hCTR2. HEK cells were transfected with hCTR2.
CHO-6CRE-luciferase cells with or without co-expressed hCTR2 were grown in suspension in commercially available cell culture medium supplemented with 2 mM L-glutamine and 5% fetal bovine serum (FBS). Sixteen hours before each assay, cells were collected and resuspended at 1,000,000 cells/ml in media without FBS. Cells were cultured in spinner flasks at 37° C. in an atmosphere of 5% CO2. At the time of the assay, cells were pelleted by centrifugation and resuspended in media without FBS at a concentration of 250,000 cells/ml. The cell suspension was pipetted into black 96-well microtiter plates (25,000 cells/well) containing test compounds. After a four-hour incubation at 37° C., media was aspirated, followed by addition of 50 microliters of LucLite and PBS (1:1) containing 1 mM CaCl2 and 1 mM MgCl2. The plates were sealed and incubated for 20 minutes in the dark. Luminescent responses were measured using a Packard TopCount.
Structure activity studies were performed on CHO-6CRE-luciferase cells with or without co-transfected hCT2R. Forty-eight hours before each assay, cells were removed with trypsin and plated in 96-well microtiter plates at a concentration of 25–100,000 cells/well. Sixteen hours before each assay, FBS-containing media was removed and replaced with media without FBS. Compounds were added and incubated for four hours at 37° C. After incubation, media was aspirated and 50 microliters of LucLite in PBS (1:1) containing 1 mM CaCl2 and 1 mM MgCl2 were added to each well. Plates were sealed and incubated for 20 minutes in the dark before quantification of luminescence on a Packard TopCount.
Concentration-response curves were calculated and potencies were reported as the concentration of compounds producing half-maximal responses (EC50) or the negative log of the concentration of compounds producing half-maximal responses (pEC50).

| Compound | EC50 [nM] |
| --- | --- |
| CCOC(=O)c1c(CCc2ccc(OC)cc2)nc2c(c1-c1ccc(C(=O)NCc3ccco3)cc1)C(=O)N1CCC[C@H]21 [Example 1, Ethyl (9aR)-4-(4-{[(2-furylmethyl)amino]carbonyl}phenyl)-2-[2-(4-methoxyphenyl)ethyl]-5-oxo-7,8,9,9a-tetrahydro-5H-pyrido[2,3-α]pyrrolizine-3-carboxylate] | 10 to 100 |
| CCOC(=O)c1c(CCc2ccc(C(F)(F)F)cc2)nc2c(c1C1CC1C(=O)NCc1ccccc1)C(=O)N1CCC[C@@H]21 (stereo partly drawn) [Example 3, Ethyl (9aS)-4-{2-[(benzylamino)carbonyl]cyclopropyl}-5-oxo-2-{2-[4-(trifluoromethyl)phenyl]ethyl}-7,8,9,9a-tetrahydro-5H-pyrido[2,3-a]pyrrolizine-3-carboxylate] | 100 to 1000 |
| CCOC(=O)c1c(Cc2ccc(F)cc2F)nc2c(c1-c1ccc(C(=O)NCc3ccco3)cc1)C(=O)N1CCC[C@@H]21 [Example 6, Ethyl (9aS)-2-(2,4-difluorobenzyl)-4-(4-{[(2-furylmethyl)amino]carbonyl}phenyl)-5-oxo-7,8,9,9a-tetrahydro-5H-pyrido[2,3-α]pyrrolizine-3-carboxylate] | 10 to 100 |
| CCOC(=O)c1c(CCc2ccc(F)cc2)nc2c(c1-c1ccc(C(=O)NCc3ccco3)cc1)c(=O)n1n2CCC1 [Example 8, Ethyl 2-[2-(4-fluorophenyl)ethyl]-4-(4-{[(2-furylmethyl)amino]carbonyl}phenyl)-5-oxo-8,9-dihydro-5H,7H-pyrazolo[1′,2′:1,2]pyrazolo[3,4-b]pyridine-3-carboxylate] | ≤ 10 |
| CCOC(=O)c1c(CCc2ccc(F)cc2)nc2c(c1-c1ccc(C(=O)NCc3ccco3)s1)c(=O)n1n2CCC1 [Example 9, Ethyl 2-[2-(4-fluorophenyl)ethyl]-4-(5-{[(2-furylmethyl)amino]carbonyl}-2-thienyl)-5-oxo-8,9-dihydro-5H,7H-pyrazolo[1′,2′:1,2]pyrazolo[3,4-b]pyridine-3-carboxyl] | ≤ 10 |
| CCOC(=O)c1c(C(F)(F)F)nc2c(c1-c1ccc(C(=O)NCc3cccc(F)c3)cc1)c(=O)n1n2CCC1 [Example 10, Ethyl 4-(4-{[(3-fluorobenzyl)amino]carbonyl}phenyl)-5-oxo-2-(trifluoromethyl)-8,9-dihydro-5H,7H-pyrazolo[1′,2′:1,2]pyrazolo[3,4-b]pyridine-3-carboxylate] | ≥ 1000 |
| O=C(NCc1ccco1)c1ccc(-c2cc(CCc3ccc(C(F)(F)F)cc3)nc3c2C(=O)N2CCC[C@@H]32)cc1 [Example 14, 4-((9aS)-5-oxo-2-{2-[4-(trifluromethyl)phenyl]ethyl}-7,8,9,9a-tetrahydro-5H-pyrido[2,3-a]pyrrolizin-4-yl)-N-(2-furylmethyl)benzamide] | 100 to 1000 |
| CCOC(=O)c1c(CCc2ccc(F)cc2)nc2c(c1-c1cc(C(=O)NC3CCc4ccccc43)cs1)C(=O)N1CCC[C@@H]21 (stereo partly drawn) [Example 15, Ethyl(9aS)-4-{4-[(2,3-dihydro-1H-inden-1-ylamino)carbonyl]-2-thieny}-2-[2-(4-fluorophenyl)ethyl]-5-oxo-7,8,9,9a-tetrahydro-5H-pyrido[2,3-a]pyrrolizine-3-carboxylate] | ≤ 10 |
| CCOC(=O)c1c(CCc2ccc(F)cc2)nc2c(c1-c1cc(C(=O)NC3CCc4ccccc43)co1)C(=O)N1CCC[C@@H]21 (stereo partly drawn) [Example 17, Ethyl(9aS)-4-{4-[(2,3-dihydro-1H-inden-1-ylamino)carbonyl]-2-furyl}-2-[2-(4-fluorophenyl)ethyl]-5-oxo-7,8,9,9a-tetrahydro-5H-pyrido[2,3-a]pyrrolizine-3-carboxylate] | ≤ 10 |
| CCOC(=O)c1c(CCc2ccc(F)cc2)nc2c(c1-c1ccc(C(=O)N[C@@H]3CCc4ccccc43)s1)C(=O)N1CCC[C@@H]21 [Example 18, Ethyl(9aS)-4-(5-{[(1R)-2,3-dihydro-1H-inden-1-ylamino]carbonyl}-2-thienyl)-2-[2-(4-fluorophenyl)ethyl]-5-oxo-7,8,9,9a-tetrahydro-5H-pyrido[2,3-a]pyrrolizine-3-carboxylate] | ≤ 10 |
| CCOC(=O)c1c(Cc2ccc(F)cc2)nc2c(c1-c1ncc(C(=O)N[C@@H]3CCc4ccccc43)s1)C(=O)N1CCC[C@@H]21 [Example 19, Ethyl (9aS)-4-(5-{[(1R)-2,3-dihydro-1H-inden-1-ylamino]carbonyl}-1,3-thiazol-2-yl)-2-(4-fluorobenzyl)-5-oxo-7,8,9,9a-tetrahydro-5H-pyrido[2,3-a]pyrrolizine-3-carboxylate] | ≤ 10 |
| O=C(N[C@@H]1CCc2ccccc21)c1ccc(-c2cc(Cc3ccc(F)cc3)nc3c2C(=O)N2CCC[C@@H]32)cc1 [Example 20, 4-[(9aS)-2-(4-fluorobenzyl)-5-oxo-7,8,9,9a-tetrahydro-5H-pyrido[2,3-a]pyrrolizin-4-yl]-N-[(1R)-2,3-dihdro-1H-inden-1-yl]benzamide] | 10 to 100 |
| CCOC(=O)c1c(CCc2ccc(C(F)(F)F)cc2)nc2c(c1-c1nc(C(=O)N[C@@H]3CCc4ccccc43)co1)c(=O)n1n2CCC1 [Example 21, Ethyl 4-(4-{[(1R)-2,3-dihydro-1H-inden-1-ylamino]carbonyl}-1,3-oxazol-2-yl)-5-oxo-2-{2-[4-(trifluoromethyl)phenyl]ethyl}-8,9-dihydro-5H,7H-pyrazolo[1′, 2′:1,2]pyrazolo[3,4-b]pyridine-3-carboxylate] | 10 to 100 |
| CCOC(=O)c1c(Cc2ccc(F)cc2F)nc2c(c1-c1cnc(C(=O)N[C@@H]3CCc4ccccc43)cn1)C(=O)N1CCC[C@@H]21 [Example 22, Ethyl(9aS)-2-(2,4-difluorobenzyl)-4-(5-{[(1R)-2,3-dihydro-1H-inden-1-ylamino]carbonyl}-2-pyrazinyl)-5-oxo-7,8,9,9a-tetrahydro-5H-pyrido[2,3-a]pyrrolizine-3-carboxylate] | 10 to 100 |
| O=C(NC1CCc2ccccc21)c1ccc(-c2c(NC(=O)C(F)(F)F)c(Cc3ccc(F)cc3F)nc3c2C(=O)N2CCCC32)cc1 [Example 23, 4-{(9aS)-2-(2,4-difluorobenzyl)-5-oxo-3-[(trifluoroacetyl)amino]-7,8,9,9a-tetrahydro-5H-pyrido[2,3-α]pyrrolizin-4-yl}-N-[(1R)-2,3-dihydro-1H-inden-1-yl]benzamide] | 10 to 100 |
| O=C(NCc1ccco1)c1ccc(-c2c(NC(=O)C3CCCC3)c(CCc3ccc(C(F)(F)F)cc3)nc3c2C(=O)N2CCC[C@@H]32)cc1 [Example 24, 4-((9aS)-3-[(Cyclopentylcarbonyl)amino]-5-oxo-2-{2-[4-(trifluoromethyl)phenyl]ethyl}-7,8,9,9a-tetrahydro-5H-pyrido[2,3-a]pyrrolizin-4-yl)-N-(2-furylmethyl)benzamide] | 100 to 1000 |
| CCC(=O)Nc1c(CCc2ccc(C(F)(F)F)cc2)nc2c(c1-c1ccc(C(=O)NCc3ccco3)cc1)C(=O)N1CCC[C@@H]21 [Example 25, 4-((9aS)-3-[(Ethylcarbonyl)amino]-5-oxo-2-{2-[4-(trifluoromethyl)phenyl]ethyl}-7,8,9,9a-tetrahydro-5H-pyrido[2,3-α]pyrrolizin-4-yl)-N-(2-furylmethyl)benzamide] | 100 to 1000 |
| O=C(NCc1ccco1)c1ccc(-c2c(NC(=O)C3CC3)c(CCc3ccc(C(F)(F)F)cc3)nc3c2C(=O)N2CCC[C@@H]32)cc1 [Example 26, 4-((9aS)-3-[(Cyclopropylcarbonyl)amino]-5-oxo-2-{2-[4-(trifluoromethyl)phenyl]ethyl}-7,8,9,9a-tetrahydro-5H-pyrido[2,3-α]pyrrolizin-4-yl)-N-(2-furylmethyl)benzamide] | 100 to 1000 |
| O=C(NCc1ccco1)c1ccc(-c2c(NC(=O)C(F)(F)F)c(CCc3ccc(C(F)(F)F)cc3)nc3c2C(=O)N2CCC[C@@H]32)cc1 [Example 27, 4-((9aS)-3-[(Trifluoromethylcarbonyl)amino]-5-oxo-2-{2-[4-(trifluoromethyl)phenyl]ethyl}-7,8,9,9a-tetrahydro-5H-pyrido[2,3-α]pyrrolizin-4-yl)-N-(2-furylmethyl)benzamide] | 100 to 1000 |
